Measurements from patent EP1204866B1, “IMMUNOASSAY FOR PESTICIDES AND THEIR DEGRADATION PRODUCTS” (priority 1999, dated 2001).
Several values for one entry are separate records, joined by “and”; a condition that tells them apart may be missing. Equal entries are not always repeated. Entries after “also recorded” stand apart in the source; their conditions may differ.

Assays:
[1] = tested on: HYB 273-1; experiment: competitive ELISA (immunoassay) for BAM with monoclonal antibody on hapten-coated microtitre plates; format: binding, mice
Description: The cross reactivity of an assay is a measure of its specificity for the analyte relative to similar or related compounds. It is useful in assessing its accuracy in crude samples with several potential haptens. Standard curves based on the 4-parameter-logistic equation (eq 1) were generated for a series of analytes (Table 3) in the range 100 to 0 mg/L (10-fold titrations). The IC50 value (C*) for each analyte was then compared with the IC50 of BAM (C) in equation 3. CR = ((C)/(C*)) × 100% [formula] • CR: cross-reactivity [%] • C: value of IC50 for BAM [µg/L] • C*: value of IC50 for cross-reacting analyte [µg/L]
Standards were used to generate comparative standard curves. The standards were added to hapten-coated plates followed by a known amount of antibody, such as HYB 273-1 in buffer. The plate was incubated for 1 hour, washed, and incubated with RαM^HRP, an enzyme label and incubated for 1 hour. After extensive washing, the enzyme substrate TMB-Plus was added. The colour development was stopped using acid and the absorbance read at 450 nm.
The standards were used to generate a semi-log graph based on the 4-parameter-logistic method (Rodbard, 1974: equation 1). Y = ((A-D))/([1+(((X)/(C)))^B]) + D [formula] • X: concentration of analyte (µg/L). • Y: absorbance at 450 nm (A450). • A: maximum absorbance (upper asymptote). • D: minimum absorbance (lower asymptote). • C: midpoint between A and D. Extrapolation to x-axis yields the value of IC50 (µg/L). • B: slope for the transition between A and D
The signals were normalised according to equation 2 %(B)/(B0) = (A-Axs)/(A0 -Axs) × 100 [formula] • B : concentration of bound antibody and • B0 : concentration of bound antibody in the absence of analyte.
On the plot, 100 % corresponds to the absorption of the zero control (A0: 0 µg/L) and 0 % corresponds to the absorption of an excess control (Axs: 100 µg/L). The normalised signals were plotted vs. BAM concentration and the four-parameter-logistic equation (eq 1) was fitted to the experimental points.
i) Passive adsorption: A MaxiSorp™ microtitre plate was filled by a stationary dispensor with 200 µL/well BAM-OA (16.7 ng/mL) in coating buffer. After coating over night at 4°C the plate was washed 4 times with de-ionised water and dried 30 min at 37°C. The plate was either used immediately or sealed with tape lid and stored at room temperature in the dark until use.
A PolySorp™microtitre plate was filled by a stationary dispensor with 200 µL/well BAM-OA-AQ (50 ng/mL) in 0.1 × PBS. After being exposed to uv-light (300-400 nm) at 34°C for 30 min, the plate was washed 4 times with de-ionised water and dried 30 min at 37°C. […]
Standards (in Milli-Q® water) and samples (150 µL) were added to the hapten-coated plate followed by the addition of 50 µL antibody (HYB 273-1) diluted in 10 × PBST (66.7 ng/mL). […] The colour development was stopped after 10 minutes by adding 50 µL/well 1 M H2SO4 and the absorbance was read at 450 nm. […] Y = ((A-D))/([1+(((X)/(C)))^B]) + D [formula] • X: concentration of analyte (µg/L). • Y: absorbance at 450 nm (A450). • A: maximum absorbance (upper asymptote). • D: minimum absorbance (lower asymptote). • C: midpoint between A and D. Extrapolation to x-axis yields the value of IC50 (µg/L). • B: slope for the transition between A and D
These calculations were executed automatically by the software package SOFTmax® PRO Version 2.2 upon reading the microtitre plates. […]

[2] = tested on: Balb/c×CF1 F1-hybrid mice; experiment: immunisation of mice with hapten-polymer carrier complex and generation of monoclonal antibodies; format: in vivo; details: hapten bound to polymer carrier (ovalbumin)
Description: Live mice were primed for immunisation by an intraperitoneal injection of live BCG-vaccine one month before immunisation. The antigen (hapten-OA complex), once adsorbed onto Al(OH)3, was injected intraperitonally and test bleedings were collected. When antibody titre's exceeded 1:2000, mice were considered ready for fusion and the method described by Köhler and Milstein (1975) was employed with minor modifications. Monoclonal antibodies were selected on basis of titre, affinity and specificity. Selected clones were recloned until monoclonality and stored frozen at -80 °C.
Ten to twelve weeks old female Balb/c×CF1 F1-hybrid mice were used for immunisation. 5 One month before immunisation they were primed with 0.2 mL live BCG-vaccine intraperitonally. The antigen ([…] carrier/immunogen) was absorbed onto Al(OH)3 as an adjuvant. The total volume of vaccine per immunisation was 200 µL, containing […] of antigen and […] of adjuvant. The antigen was injected intraperitonally with 2-weeks intervals. Test bleedings were collected 10 days after immunisation and assayed in ELISA.
When antibody titre's exceeded 1:2000, mice were regarded ready for fusion. The procedure as described by Köhler and Milstein (1975) was employed with minor modifications. Monoclonal antibodies were selected on basis of titre, affinity and specificity. […]

For NC(=O)c1ccc(Cl)cc1Cl [2,4-dichlorobenzamide], the cross-reactivity ([1]; IC50 of BAM divided by IC50 of analyte x 100, analytes assayed up to 100 mg/L, antibody HYB 273-1) was 3.8%.
NC(=O)c1c(Cl)cccc1Cl [BAM, 2,6-dichlorobenzamide] was tested, and the IC50 ([1]; covalently immobilised (photocoupled) plates, PolySorp, BAM-OA-AQ, Figure 3A) was 0.189 ng/mL and 0.19 ng/mL, the IC50 ([1]; passively adsorbed plates, MaxiSorp, BAM-OA, Figure 3B) was 0.144 ng/mL and 0.14 ng/mL and the “DL15 (detection limit, analyte concentration giving a 15 % decrease in maximum signal)” value ([1]; photo catalysed covalent immobilisation, Figure 3A) was 0.02 µg/L. The “DL15 (detection limit, analyte concentration giving a 15 % decrease in maximum signal)” value ([1]; surfaces immobilised by passive adsorption, Figure 3B) was 0.045 µg/L.
With “N-(5-carboxypentyl)-2,4-dichloro-3-amido aniline [EQ-0031]” the immunoresponse on immunisation [2] was “good responses were generated and several clones were produced; also recorded: generated good immunoresponse”.
